Patent US9862716B2, “TRKA kinase inhibitors, compositions and methods thereof” (Merck Sharp & Dohme Corp., priority 2014, dated 2018)

These compounds were tested against T1, human TrkA receptor (Homo sapiens, UniProt P04629) (assay: DiscoverX PathHunter TrkA functional assay (NGF-stimulated U2OS cells)). Details: U2OS cells expressing human TrkA-PK, Shc1-EA and p75NTR; compound 1 h, then NGF at ~80% of maximal response for 3 h; luminescence.
T1 construct: host or cells: U2OS cells (PathHunter cell line)
Assay type: cell-based

T1 sequence (P04629 33-796): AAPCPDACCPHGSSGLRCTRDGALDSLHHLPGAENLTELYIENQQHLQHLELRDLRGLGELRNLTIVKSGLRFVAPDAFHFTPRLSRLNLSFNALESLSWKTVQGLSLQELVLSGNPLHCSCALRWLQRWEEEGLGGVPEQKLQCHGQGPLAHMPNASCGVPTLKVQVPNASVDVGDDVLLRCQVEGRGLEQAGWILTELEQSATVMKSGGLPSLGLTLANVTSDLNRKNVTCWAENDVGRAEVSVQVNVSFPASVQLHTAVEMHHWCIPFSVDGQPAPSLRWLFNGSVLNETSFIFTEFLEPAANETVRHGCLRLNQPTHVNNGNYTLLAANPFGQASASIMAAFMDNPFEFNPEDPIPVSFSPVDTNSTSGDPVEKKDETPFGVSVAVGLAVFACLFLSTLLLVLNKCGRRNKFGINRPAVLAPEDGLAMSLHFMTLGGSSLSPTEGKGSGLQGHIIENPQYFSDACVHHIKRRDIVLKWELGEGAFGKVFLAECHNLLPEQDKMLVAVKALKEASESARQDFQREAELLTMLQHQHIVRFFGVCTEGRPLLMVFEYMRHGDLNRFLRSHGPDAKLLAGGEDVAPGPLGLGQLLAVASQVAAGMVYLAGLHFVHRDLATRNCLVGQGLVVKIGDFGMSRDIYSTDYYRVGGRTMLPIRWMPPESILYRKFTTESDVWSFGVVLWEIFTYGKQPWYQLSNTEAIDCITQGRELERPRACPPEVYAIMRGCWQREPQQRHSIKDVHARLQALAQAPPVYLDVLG

| IC50 | SMILES |
| --- | --- |
| 2.8 nM | Cn1ccc(-c2cc(C(=O)Nc3c(-c4ccccc4)nc4ncccn34)c(Cl)cc2C(F)(F)F)n1 [Compound 24, 2-chloro-5-(1-methyl-1H-pyrazol-3-yl)-N-(2-phenylimidazo[1,2-a]pyrimidin-3-yl)-4-(trifluoromethyl) benzamide] |
| 1.4 nM | CNC(=O)c1ccn2c(NC(=O)c3ccc(C(F)(F)F)c(-c4ccn(C)n4)c3)c(-c3ccccc3)nc2c1 [Compound 25, N-methyl-3-({[3-(1-methyl-1H-pyrazol-3-yl)-4-(trifluoromethyl)phenyl]carbonyl}amino)-2-phenylimidazo[1,2-a]pyridine-7-carboxamide] |
| 1.4 nM | Cn1ccc(-c2cc(C(=O)Nc3c(-c4ccccc4)nc4cc(CO)ccn34)ccc2C(F)(F)F)n1 [Compound 26, N-[7-(hydroxymethyl)-2-phenylimidazo[1,2-a]pyridin-3-yl]-3-(1-methyl-1H-pyrazol-3-yl)-4-(trifluoromethyl) benzamide] |
| 1.8 nM | Cn1ccc(-c2cc(C(=O)Nc3c(-c4ccccc4)nc4cc(C(C)(C)O)ccn34)ccc2C(F)(F)F)n1 [Compound 27, N-[7-(1-hydroxy-1-methylethyl)-2-phenylimidazo[1,2-a]pyridin-3-yl]-3-(1-methyl-1H-pyrazol-3-yl)-4-(trifluoromethyl) benzamide] |
| 1.4 nM | Cn1ccc(-c2cc(C(=O)Nc3c(-c4ccccc4)nc4cc(C(=O)N5CCC5)ccn34)ccc2C(F)(F)F)n1 [Compound 29, N-[7-(azetidin-1-ylcarbonyl)-2-phenylimidazo[1,2-a]pyridin-3-yl]-3-(1-methyl-1H-pyrazol-3-yl)-4-(trifluoromethyl) benzamide] |
| 40 nM | O=C(Nc1c(-c2ccccc2)nc2ccccn12)c1cc(-c2ncccn2)c(Cl)cc1F [Compound 30, 4-chloro-2-fluoro-N-(2-phenylimidazo[1,2-a]pyridin-3-yl)-5-pyrimidin-2-ylbenzamide] |
| 27 nM | Cn1ccc(-c2cc(C(=O)Nc3nc4ccccc4nc3-c3ccccc3)ccc2C(F)(F)F)n1 [Compound 31, 3-(1-methyl-1H-pyrazol-3-yl)-N-(3-phenylquinoxalin-2-yl)-4-(trifluoromethyl) benzamide] |
| 58 nM | O=C(Nc1c(-c2ccccc2)nc2ccccn12)c1ccc(C(F)(F)F)c(-c2nc[nH]n2)c1 [Compound 34, N-(2-phenylimidazo[1,2-a]pyridin-3-yl)-3-(1H-1,2,4-triazol-3-yl)-4-(trifluoromethyl) benzamide] |
| 0.49 nM | Cn1ccc(-c2cc(C(=O)Nc3c(-c4ccccc4)nc4ccccn34)c(F)cc2C(F)(F)F)n1 [Compound 35, 2-fluoro-5-(1-methyl-1H-pyrazol-3-yl)-N-(2-phenylimidazo[1,2-a]pyridin-3-yl)-4-(trifluoromethyl) benzamide] |
| 2.4 nM | Cn1ccc(-c2cc(C(=O)Nc3c(-c4ccccc4)nc4c(CO)cccn34)ccc2C(F)(F)F)n1 [Compound 38, N-[8-(hydroxymethyl)-2-phenylimidazo[1,2-a]pyridin-3-yl]-3-(1-methyl-1H-pyrazol-3-yl)-4-(trifluoromethyl) benzamide] |
| 2.7 nM | O=C(Nc1c(-c2ccccc2)nc2ccccn12)c1cc(-c2cc[nH]n2)c(C(F)(F)F)cc1F [Compound 40, 2-fluoro-N-(2-phenylimidazo[1,2-a]pyridin-3-yl)-5-(1H-pyrazol-3-yl)-4-(trifluoromethyl) benzamide] |
| 1.4 nM | CC(C)(O)c1ccc2nc(-c3ccccc3)c(NC(=O)c3ccc(C(F)(F)F)c(-c4ncccn4)c3)n2c1 [Compound 44, N-[6-(1-hydroxy-1-methylethyl)-2-phenylimidazo[1,2-a]pyridin-3-yl]-3-pyrimidin-2-yl-4-(trifluoromethyl) benzamide] |

Continued, compound first:

| SMILES | IC50 |
| --- | --- |
| Cn1ccc(-c2cc(C(=O)Nc3c(-c4ccccc4)nc4ccc(F)cn34)ccc2C(F)(F)F)n1 [Compound 21, N-(6-fluoro-2-phenylimidazo[1,2-a]pyridin-3-yl)-3-(1-methyl-1H-pyrazol-3-yl)-4-(trifluoromethyl) benzamide] | 3.8 nM |
| Cn1ccc(-c2cc(C(=O)Nc3c(-c4ccccc4)nc4c(F)cccn34)ccc2C(F)(F)F)n1 [Compound 22, N-(8-fluoro-2-phenylimidazo[1,2-a]pyridin-3-yl)-3-(1-methyl-1H-pyrazol-3-yl)-4-(trifluoromethyl) benzamide] | 1.9 nM |
| Cn1ccc(-c2cc(C(=O)Nc3c(-c4ccncc4)nc4ccccn34)c(Cl)cc2C(F)(F)F)n1 [Compound 23, 2-chloro-5-(1-methyl-1H-pyrazol-3-yl)-N-(2-pyridin-4-ylimidazo[1,2-a]pyridin-3-yl)-4-(trifluoromethyl) benzamide] | 2 nM |
| CN(C)C(=O)c1ccn2c(NC(=O)c3ccc(C(F)(F)F)c(-c4ccn(C)n4)c3)c(-c3ccccc3)nc2c1 [Compound 28, N,N-dimethyl-3-({[3-(1-methyl-1H-pyrazol-3-yl)-4-(trifluoromethyl)phenyl]carbonyl}amino)-2-phenylimidazo[1,2-a]pyridine-7-carboxamide] | 1.3 nM |
| Cn1ccc(-c2cc(C(=O)Nc3c(-c4ccccc4)nc4ccccn34)c(O)cc2C(F)(F)F)n1 [Compound 32, 2-hydroxy-5-(1-methyl-1H-pyrazol-3-yl)-N-(2-phenylimidazo[1,2-a]pyridin-3-yl)-4-(trifluoromethyl) benzamide] | 477 nM |
| Cn1ccc(-c2cc(C(=O)Nc3c(-c4ccccc4)nc4ccccn34)c(C#N)cc2C(F)(F)F)n1 [Compound 33, 2-cyano-5-(1-methyl-1H-pyrazol-3-yl)-N-(2-phenylimidazo[1,2-a]pyridin-3-yl)-4-(trifluoromethyl) benzamide] | 532 nM |
| Cn1ccc(-c2cc(C(=O)Nc3c(-c4ccccc4)nc4ccc(C(C)(C)O)cn34)ccc2C(F)(F)F)n1 [Compound 36, N-[6-(1-hydroxy-1-methylethyl)-2-phenylimidazo[1,2-a]pyridin-3-yl]-3-(1-methyl-1H-pyrazol-3-yl)-4-(trifluoromethyl) benzamide] | 0.34 nM |
| Cn1ccc(-c2cc(C(=O)Nc3c(-c4ccccc4)nc4ccc(CO)cn34)ccc2C(F)(F)F)n1 [Compound 37, N-[6-(hydroxymethyl)-2-phenylimidazo[1,2-a]pyridin-3-yl]-3-(1-methyl-1H-pyrazol-3-yl)-4-(trifluoromethyl) benzamide] | 1.8 nM |
| Cn1ccc(-c2cc(C(=O)Nc3c(-c4ccccc4)nc4cc(Br)ccn34)ccc2C(F)(F)F)n1 [Compound 39, N-(7-bromo-2-phenylimidazo[1,2-a]pyridin-3-yl)-3-(1-methyl-1H-pyrazol-3-yl)-4-(trifluoromethyl) benzamide] | 2.7 nM |
| C[C@H](O)c1ccn2c(NC(=O)c3ccc(C(F)(F)F)c(-c4ccn(C)n4)c3)c(-c3ccccc3)nc2c1 [Compound 41, N-{7-[(1S)-1-hydroxyethyl]-2-phenylimidazo[1,2-a]pyridin-3-yl}-3-(1-methyl-1H-pyrazol-3-yl)-4-(trifluoromethyl) benzamide] | 0.96 nM |
| CC(C)(O)c1ccn2c(NC(=O)c3ccc(C(F)(F)F)c(-c4ncccn4)c3)c(-c3ccccc3)nc2c1 [Compound 43, N-[7-(1-hydroxy-1-methylethyl)-2-phenylimidazo[1,2-a]pyridin-3-yl]-3-pyrimidin-2-yl-4-(trifluoromethyl) benzamide] | 7.9 nM |
